Results reported in the NIST ThermoML archive (doi:10.1016/j.fluid.2015.05.002).

Settings: Liquid; for mass density: 295 K, 101.33 kPa, Vibrating tube method; for vapor or sublimation pressure: Closed cell (Static) method

CC1CCCO1 (stereo not given) [2-methyltetrahydrofuran]
Settings | mass density [kg/m3] | vapor or sublimation pressure [kPa]
– | 851.6 | –
368.95 K | – | 163
372.89 K | – | 181
377.88 K | – | 207
382.89 K | – | 237
387.86 K | – | 268
392.93 K | – | 304
398.03 K | – | 344
403.02 K | – | 386
408.05 K | – | 432
413.07 K | – | 483
418.08 K | – | 538
423.11 K | – | 597
428.18 K | – | 661
433.16 K | – | 730
438.19 K | – | 804
443.19 K | – | 883
448.17 K | – | 968
453.22 K | – | 1060
458.19 K | – | 1157
463.25 K | – | 1262
468.25 K | – | 1372
473.2 K | – | 1489
483.25 K | – | 1746
493.28 K | – | 2035
503.24 K | – | 2358
508.21 K | – | 2532

Cc1ccco1 [2-methylfuran]
Settings | mass density [kg/m3] | vapor or sublimation pressure [kPa]
– | 916.7 | –
353.1 K | – | 167
358.07 K | – | 194
363.06 K | – | 224
368.02 K | – | 257
372.97 K | – | 294
377.98 K | – | 334
382.99 K | – | 379
387.96 K | – | 427
392.97 K | – | 480
397.93 K | – | 538
402.98 K | – | 600
407.95 K | – | 670
412.96 K | – | 743
417.96 K | – | 823
422.94 K | – | 909
427.97 K | – | 1001
432.93 K | – | 1099
437.97 K | – | 1206
442.93 K | – | 1319
447.95 K | – | 1442
452.97 K | – | 1571
457.97 K | – | 1710
462.96 K | – | 1856
467.96 K | – | 2013
472.97 K | – | 2179
482.96 K | – | 2541
492.93 K | – | 2947
502.93 K | – | 3403
507.92 K | – | 3651

CC(C)CC(C)(C)C [2,2,4-trimethylpentane]
Settings | mass density [kg/m3] | vapor or sublimation pressure [kPa]
– | 690.4 | –
388.02 K | – | 163
392.98 K | – | 184
398.09 K | – | 208
403.09 K | – | 233
408.08 K | – | 262
413.12 K | – | 293
418.11 K | – | 326
423.15 K | – | 362
428.13 K | – | 401
433.09 K | – | 442
438.15 K | – | 488
443.1 K | – | 536
448.13 K | – | 589
453.09 K | – | 644
458.11 K | – | 704
463.05 K | – | 769
468.08 K | – | 837
473.08 K | – | 911
483.1 K | – | 1072
493.14 K | – | 1255
503.18 K | – | 1459
508.17 K | – | 1571
